Reference: patent publication US11198699B2 (ALIGOS THERAPEUTICS, INC., priority 2019, dated 2021)

Legend:
PRMT5/MEP50 [1] = biological target: T1, PRMT5/MEP50 (Homo sapiens (Human), UniProt O14744); experiment: PRMT5/MEP50 enzyme inhibition assay, Assay 2 (384-well, MALDI mass spectrometry, histone H4 1-21 peptide); assay type: biochemical; details: 1 μM SAM, 0.1 μM histone H4 1-21 peptide, 18-hour incubation at rt
Description: Compounds were tested for inhibition of methyltransferase activity in 384-well plate assay format using mass spectrometry technology. In this enzyme inhibition assay, compounds were tested in a 11-dose IC50 mode with 3-serial dilution, in duplicate, starting at 1, 10, or 100 μM. Reactions were carried out at 1 μM SAM and 0.1 μM histone H4 1-21 peptide as substrates for methyl transfer. Following an 18-hour incubation at rt, the reaction was stopped with 0.5% formic acid. Products of the reaction were captured while unreacted substrates were washed away, prior to MALDI mass spectrometry detection and analysis. Percent enzyme activity was calculated based on no inhibitor DMSO control as 100% activity. EC50 values were determined in GraphPad Prism 8 using the [inhibitor] vs. response—Variable slope (four parameters) function.
(§1) Compounds of Formula (I) show activity in this assay. A value of ‘A’ in the table below indicates an IC50 of <1 nM, a value of ‘B’ indicates an IC50≥1 nM to ≤100 nM, and a value of ‘C’ indicates an IC50 value of >100 nM.

PRMT5/MEP50 [2] = biological target: T1, PRMT5/MEP50; experiment: PRMT5/MEP50 enzyme inhibition assay, Assay 1 (radioisotope filter binding, 3H-SAM, histone H2A); assay type: biochemical; details: 1 μM 3H-SAM, 5 μM histone H2A, 60 min at 30° C.
Description: Compounds were tested for inhibition of methyltransferase activity in a radioisotope filter binding assay, similar to previously described in A selective inhibitor of PRMT5 with in vivo and in vitro potency in MCL models. Chan-Penebre et al., Nat Chem Biol. (2015) 11(6):432-7. In the standard PRMT5/MEP50 enzyme inhibition assay, compounds were tested in a 10-dose IC50 mode with 3- or 5-fold serial dilution, in singlet, starting at 1, 10, or 100 μM. Control compound, SAH (S-(5′-Adenosyl)-L-homocysteine), was tested in 10-dose IC50 mode with 3-fold serial dilution starting at 100 μM. Reactions were carried out at 1 μM 3H-SAM (PerkinElmer) and 5 μM histone H2A as substrates for methyl transfer. Following a 60 min incubation at 30° C., the reaction was stopped with 20% TCA. Each reaction was spotted on a filter plate (Multiscreen FB Filter plate, Millipore) and washed 5 times in PBS, after which scintillation fluid was added and signal was detected in a scintillation counter. Percent enzyme activity was calculated based on no inhibitor DMSO control as 100% activity. EC50 values were determined in GraphPad Prism 8 using the [inhibitor] vs. response—Variable slope (four parameters) function.
as §1

[3] = tested on: A549 lung carcinoma cells; experiment: Cell proliferation assay, A549 (CellTiter-Glo, 7 days); assay type: cell-based; details: A549, 7 days, CellTiter-Glo 2.0
Description: (§2) HepG2 hepatoma cells (ATCC, HB-8065) were maintained in DMEM with high glucose (Lonza, 12-914F) supplemented with 10% fetal bovine serum (FBS; Biowest, S181B-500) and 2 mM L-glutamine (Biowest, X0551-100) at 37° C. and 5% CO2. A549 lung carcinoma cells (ATCC, CCL-185) were maintained in F-12K medium (ThermoFisher 21127030) supplemented with 10% FBS at 37° C. and 5% CO2. Exponentially growing HepG2 or A549 were plated in white, clear-bottom 96-well plates (Corning, 3903) at a cell density of 2000 (HepG2) or 350 (A549) cells per well in 199 μL of HepG2 medium. Next, 1 μL of a 5-fold 9-point dilution series of test compound in DMSO was added to the different wells. Cells were incubated at 37° C. 5% CO2 for 7 days. Cell viability was assessed on day 7 with the CellTiter-Glo 2.0 Cell Viability assay kit (Promega, G9243) to quantify the intracellular amounts of ATP: first, 100 μL of cell culture medium was removed from each well, next 100 μL of CellTiter-Glo® 2.0 Reagent was added and plates were shaken for 2 minutes on an orbital shaker. After 10 minutes stabilization at room temperature, read-out was performed on a ThermoFisher VarioSkan Lux plate reader. Counts were normalized to DMSO control (0% inhibition) and the cytotoxic control (100% inhibition) and EC50 values were determined in GraphPad Prism 8 using the [Agonist] vs. response—Variable slope (four parameters) function.
(§3) As shown by the data of Table 2, compounds of Formula (I) have activity in this assay. A value of ‘A’ in the table below indicates an EC50 of <20 nM, a value of ‘B’ indicates an EC50≥20 nM to <100 nM, a value of ‘C’ indicates an EC50 value of EC50≥100 nM to <1000 nM and a value of ‘D’ indicates an EC50≥1000 nM

HepG2 hepatoma cells = experiment: Cell proliferation assay, HepG2 (CellTiter-Glo, 7 days); assay type: cell-based; details: HepG2, 7 days, CellTiter-Glo 2.0
Description: as §2, §3

T1 sequence (O14744 whole entry): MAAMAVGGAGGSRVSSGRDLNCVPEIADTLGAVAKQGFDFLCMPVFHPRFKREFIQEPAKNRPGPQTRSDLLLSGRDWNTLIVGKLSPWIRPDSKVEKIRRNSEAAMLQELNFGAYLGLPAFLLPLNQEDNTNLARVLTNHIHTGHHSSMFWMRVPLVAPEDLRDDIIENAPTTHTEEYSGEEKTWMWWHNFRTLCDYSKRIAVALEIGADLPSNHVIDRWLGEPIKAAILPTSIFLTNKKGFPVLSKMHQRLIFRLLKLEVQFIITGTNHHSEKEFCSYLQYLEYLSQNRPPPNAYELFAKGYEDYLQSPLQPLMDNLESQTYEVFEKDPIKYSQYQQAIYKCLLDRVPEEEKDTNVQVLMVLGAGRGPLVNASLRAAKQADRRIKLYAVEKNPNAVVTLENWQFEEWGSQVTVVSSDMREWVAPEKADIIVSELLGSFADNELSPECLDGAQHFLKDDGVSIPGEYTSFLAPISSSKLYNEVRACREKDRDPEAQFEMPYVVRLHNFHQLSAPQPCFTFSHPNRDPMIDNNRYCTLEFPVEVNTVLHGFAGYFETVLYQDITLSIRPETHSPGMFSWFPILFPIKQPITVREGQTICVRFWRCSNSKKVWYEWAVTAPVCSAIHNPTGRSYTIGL
T1 sequence (Q9BQA1 whole entry partner): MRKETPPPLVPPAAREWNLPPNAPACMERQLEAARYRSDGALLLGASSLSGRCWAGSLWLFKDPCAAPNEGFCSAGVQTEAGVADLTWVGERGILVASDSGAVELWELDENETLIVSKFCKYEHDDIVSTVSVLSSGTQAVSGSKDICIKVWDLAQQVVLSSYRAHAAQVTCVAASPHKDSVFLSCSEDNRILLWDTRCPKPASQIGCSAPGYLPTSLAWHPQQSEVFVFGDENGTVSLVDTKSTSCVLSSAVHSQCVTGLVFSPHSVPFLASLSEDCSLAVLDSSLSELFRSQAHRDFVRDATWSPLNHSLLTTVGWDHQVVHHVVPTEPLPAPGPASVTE

SMILES | IC50 (PRMT5/MEP50 [1]) | IC50 (PRMT5/MEP50 [2]) | EC50 ([3]; Homo sapiens, A549, 168 h) | EC50 (HepG2 hepatoma cells; Homo sapiens, 168 h) | EC50 [3] | EC50 (HepG2 hepatoma cells)
Nc1nc2cc(OC[C@@]3(F)C[C@@H](n4ccc5c(N)ncnc54)[C@H](O)[C@@H]3O)ccc2cc1Br [Compound 9, (1S,2S,3S,5R)-3-[(2-amino-3-bromo-7-quinolyl)oxymethyl]-5-(4-aminopyrrolo[2,3-d]pyrimidin-7-yl)-3-fluoro-cyclopentane-1,2-diol] | < 1 nM | < 1 nM | 20 to 100 nM | 20 to 100 nM | – | –
C[C@]1(CCc2ccc3cc(C4CC4)c(N)nc3c2)C[C@@H](n2ccc3c(N)ncnc32)[C@H](O)[C@@H]1O [Compound 14, (1S,2R,3S,5R)-3-[2-(2-amino-3-cyclopropyl-7-quinolyl)ethyl]-5-(4-aminopyrrolo[2,3-d]pyrimidin-7-yl)-3-methylcyclopentane-1,2-diol] | < 1 nM | < 1 nM | < 20 nM | < 20 nM | – | –
Cc1cc2ccc(CC[C@@]3(C)C[C@@H](n4ccc5c(N)ncnc54)[C@H](O)[C@@H]3O)cc2nc1N [Compound 10, (1S,2R,3S,5R)-3-[2-(2-amino-3-methyl-7-quinolyl)ethyl]-5-(4-aminopyrrolo[2,3-d]pyrimidin-7-yl)-3-methyl-cyclopentane-1,2-diol] | < 1 nM | < 1 nM | < 20 nM | < 20 nM | – | –
C[C@]1(/C=C/c2ccc3cc(Br)c(N)nc3c2)C[C@@H](n2ccc3c(N)ncnc32)[C@H](O)[C@@H]1O [Compound 1] | – | < 1 nM | – | – | – | –
Nc1nc2cc(CC[C@@]34C[C@@H]3[C@@H](n3ccc5c(N)ncnc53)[C@H](O)[C@@H]4O)ccc2cc1Br [Compound 2] | < 1 nM | < 1 nM | – | – | < 20 nM | < 20 nM
Nc1nc2cc(OC[C@H]3C[C@@H](n4ccc5c(N)ncnc54)[C@H](F)[C@@H]3O)ccc2cc1Br [Compound 11, (1R,2S,3R,5R)-5-[(2-amino-3-bromo-7-quinolyl)oxymethyl]-3-(4-aminopyrrolo[2,3-d]pyrimidin-7-yl)-2-fluoro-cyclopentanol] | 1 to 100 nM | > 100 nM | ≥ 1000 nM | 100 to 1000 nM | – | –
C=C1[C@@H](n2ccc3c(N)ncnc32)[C@H](O)[C@H](O)[C@H]1CCc1ccc2cc(Br)c(Cl)nc2c1 [Compound 3] | > 100 nM | > 100 nM | – | – | 100 to 1000 nM | 100 to 1000 nM
C[C@]1(CCc2ccc3ccc(N)nc3c2)C[C@@H](n2ccc3c(N)ncnc32)[C@H](O)[C@@H]1O [Compound 12, (1S,2R,3S,5R)-5-(4-amino-7H-pyrrolo[2,3-d]pyrimidin-7-yl)-3-(2-(2-aminoquinolin-7-yl)ethyl)-3-methylcyclopentane-1,2-diol] | < 1 nM | < 1 nM | < 20 nM | < 20 nM | – | –
C[C@@H]1[C@H](CCc2ccc3ccc(N)nc3c2)[C@@H](O)[C@@H](O)[C@@H]1n1ccc2c(N)ncnc21 [Compound 6] | 1 to 100 nM | 1 to 100 nM | – | – | ≥ 1000 nM | ≥ 1000 nM
Nc1ccc2ccc(CC[C@@]34C[C@@H]3[C@@H](n3ccc5c(N)ncnc53)[C@H](O)[C@@H]4O)cc2n1 [Compound 13, (1R,2R,3S,4R,5S)-4-(4-aminopyrrolo[2,3-d]pyrimidin-7-yl)-1-[2-(2-amino-7-quinolyl)ethyl]bicyclo[3.1.0]hexane-2,3-diol] | < 1 nM | < 1 nM | < 20 nM | < 20 nM | – | –
C[C@H]1[C@H](CCc2ccc3ccc(N)nc3c2)[C@@H](O)[C@@H](O)[C@@H]1n1ccc2c(N)ncnc21 [Compound 5] | < 1 nM | < 1 nM | – | – | 100 to 1000 nM | 100 to 1000 nM
Nc1ncnc2c1ccn2[C@H]1[C@H](O)[C@H](O)[C@]2(C(O)c3ccc(Cl)c(Cl)c3)C[C@H]12 (single isomer, unassigned) [Compound 8, (1R, 2R, 3S, 4R, 5S)-4-(4-aminopyrrolo[2,3-d]pyrimidin-7-yl)-1-[(S or R)-(3,4-dichlorophenyl)-hydroxy-methyl]bicyclo[3.1.0]hexane-2,3-diol] | > 100 nM | 1 to 100 nM | – | – | ≥ 1000 nM | 100 to 1000 nM
C=C1[C@@H](n2ccc3c(N)ncnc32)[C@H](O)[C@H](O)[C@H]1CCc1ccc2cc(Br)c(N)nc2c1 [Compound 4] | < 1 nM | < 1 nM | – | – | < 20 nM | < 20 nM
Nc1ncnc2c1ccn2[C@H]1[C@H](O)[C@H](O)[C@]2(C(O)c3ccc(Cl)c(Cl)c3)C[C@H]12 (single isomer, unassigned) [Compound 7, (1R,2R,3S,4R,5S)-4-(4-aminopyrrolo[2,3-d]pyrimidin-7-yl)-1-[(R or S)-(3,4-dichlorophenyl)-hydroxy-methyl]bicyclo[3.1.0]hexane-2,3-diol] | 1 to 100 nM | < 1 nM | – | 100 to 1000 nM | 100 to 1000 nM | –
